From patent US7767685B2, “Adenosine A2B receptor antagonists” (King Pharmaceuticals Research and Development, Inc., priority 2006, dated 2010)
pIC50, pKi: −log10 of the molar value.

Legend:
[1] = target: T1, human A2B adenosine receptors (Homo sapiens, UniProt P29275); test: cAMP assay in CHO cells expressing human A2B adenosine receptors (antagonism of NECA-induced cAMP); format: cell-based; details: antagonism of NECA (100 nM)-induced cAMP, geometric mean (95% confidence limits), read-out: IC50 hA2B (cAMP assay)
T1 construct: expressed in transfected cells; host or cells: CHO cells (whole cells)
T1 sequence (P29275 1-332): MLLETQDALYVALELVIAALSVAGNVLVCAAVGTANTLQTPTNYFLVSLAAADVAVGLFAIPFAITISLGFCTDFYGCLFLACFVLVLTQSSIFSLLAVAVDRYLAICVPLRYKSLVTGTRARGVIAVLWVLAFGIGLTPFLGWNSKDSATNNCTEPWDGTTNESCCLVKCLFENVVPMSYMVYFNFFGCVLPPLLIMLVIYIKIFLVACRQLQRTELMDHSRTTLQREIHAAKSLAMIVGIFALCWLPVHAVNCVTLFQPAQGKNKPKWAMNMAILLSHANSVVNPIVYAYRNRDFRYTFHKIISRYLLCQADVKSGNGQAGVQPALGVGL
Procedure: Measurement of Cyclic AMP Levels in CHO Cells Transfected with Human A2B Adenosine Receptors
CHO cells transfected with human A2B adenosine receptors are washed with phosphate-buffered saline, diluted trypsine and centrifuged for 10 min at 200 g. The pellet containing the CHO cells (1×10^6 cells/assay) is suspended in 0.5 mL of incubation mixture: NaCl 150 mM, KCl 2.7 mM, NaH2PO4 0.37 mM, MgSO4 1 mM, CaCl2 1 mM, Hepes 5 mM, MgCl2 10 mM, glucose 5 mM, pH 7.4 at 37° C. Then 2.0 IU/mL adenosine deaminase and 0.5 mM 4-(3-butoxy-4-methoxybenzyl)-2-imidazolidinone (Ro 20-1724) as phosphodiesterase inhibitor are added and preincubated for 10 min a shaking bath at 37° C. The potency of antagonists studied are determined by antagonism of NECA (100 nM)-induced stimulation of cyclic AMP levels. The reaction is terminated by the addition of cold 6% thrichloroacetic acid (TCA). The TCA suspension is centrifuged at 2000 g for 10 min at 4° C. and the supernatant is extracted four times with water saturated diethyl ether. The final aqueous solution is tested for cyclic AMP levels by a competition protein binding assay. Samples of cyclic AMP standard ([…]) are added to each test tube containing the incubation buffer (trizma base 0.1 M, aminophylline 8.0 mM, 2-mercaptoethanol 6.0 mM (pH 7.4) and [^3H]cyclic AMP in a total volume of 0.5 mL. The binding protein previously prepared from beef adrenals, is added to the samples previously incubated at 4° C. for 150 min, and after the addition of charcoal are centrifuged at 2000 g for 10 min. The clear supernatant is counted with 4 mL of Atomlight liquid scintillator and counted in a Tri Carb Packard 2500 TR scintillation counter.
(§1) The protein concentration is determined according to a Bio-Rad method (Bradford, Anal Biochem. 1976, 72: 248-254) with bovine albumin as a standard reference. Inhibitory binding constant, Ki, values are calculated from those of IC50 according to Cheng & Prusoff equation (Biochem. Pharmacol 1973, 22: 3099-3108): Ki=IC50/(1+[C*]/KD*) where [C*] is the concentration of the radioligand and KD* its dissociation constant. A weighted non linear least-squares curve fitting program LIGAND (Munson et al., Anal. Biochem 1980, 107: 220-239) is used for computer analysis of inhibition experiments Data are expressed as geometric mean with 95% confidence limits in parentheses. Examples of Animal Models

[2] = target: T1, human A2B adenosine receptors; test: Displacement of [3H]MRE2029F20 binding at human A2B adenosine receptors; details: [3H]MRE2029F20 displacement, human A2B receptors (footnote: HEK293 cells; method: CHO cells), n = 3-6; geometric mean (95% confidence limits); read-out: Ki hA2B
Procedure: […] (Naunyn-Schmied. Arch Pharm. 1998, 357: 1-9). Briefly, the cells are grown adherently and maintained in Dulbecco's Modified Eagles Medium with nutrient mixture F12 (DMEM/F12) without nucleosides, containing 10% fetal calf serum, penicillin (100 U/mL), streptomycin (100 μg/mL), L-glutamine (2 mM) and Geneticin (G418, 0.2 mg/ml) at 37° C. in 5% CO2/95% air. For membrane preparation the culture medium is removed and the cells are washed with phosphate-buffered saline and scraped off T75 flasks in ice-cold hypo tonic buffer (5 mM Tris HCl, 1 mM EDTA, pH 7.4). The cell suspension is homogenized with Polytron, the homogenate is spun for 10 min at 1000×g and the supernatant is then centrifuged for 30 min at 100,000×g. The membrane pellet is suspended in 50 mM Tris HCl buffer (pH 7.4) for A1 adenosine receptors, in 50 mM Tris HCl, 10 mM MgCl2 (pH 7.4) for A2A adenosine receptors, in 50 mM Tris HCl, 10 mM MgCl2, 1 mM EDTA (pH 7.4) for A2B and A3 adenosine receptors.
All new synthesized compounds have been tested to evaluate their affinity to human A1, A2A, A2B and A3 adenosine receptors. […] Pharmacol., 2000, 57: 968-975). Non-specific binding is determined in the presence of 10 μM of CHA and this is always ≦10% of the total binding. […] recombinant A2A adenosine receptors is performed using a suspension of membranes (50 μg of protein/assay) and at least 6-8 different concentrations of studied antagonists for an incubation time of 60 min at 4° C. Non-specific binding is determined in the presence of 1 μM ZM 241385 and is about 20% of total binding. […] Non-specific binding is defined as binding in the presence of 1 μM MRE 3029F20 and is about 25% of total binding. […] Non-specific binding is defined as binding in the presence of 1 μM MRE 3008F20 and is about 25% of total binding. Bound and free radioactivity are separated by filtering the assay mixture through Whatman GF/B glass fiber filters using a Micro-Mate 196 cell harvester (Packard Instrument Co.). The filter bound radioactivity is counted on a Top Count (efficiency 57%) with Micro-Scint 20.
as §1

[3] = target: T2, human A1 adenosine receptors (Homo sapiens, UniProt P30542); test: Displacement of [3H]DPCPX binding at human A1 adenosine receptors expressed in CHO cells; details: [3H]DPCPX displacement, n = 3-6, geometric mean (95% confidence limits), read-out: Ki hA1
T2 construct: expressed in transfected cells; host or cells: CHO cells (membranes)
T2 sequence (P30542 1-326): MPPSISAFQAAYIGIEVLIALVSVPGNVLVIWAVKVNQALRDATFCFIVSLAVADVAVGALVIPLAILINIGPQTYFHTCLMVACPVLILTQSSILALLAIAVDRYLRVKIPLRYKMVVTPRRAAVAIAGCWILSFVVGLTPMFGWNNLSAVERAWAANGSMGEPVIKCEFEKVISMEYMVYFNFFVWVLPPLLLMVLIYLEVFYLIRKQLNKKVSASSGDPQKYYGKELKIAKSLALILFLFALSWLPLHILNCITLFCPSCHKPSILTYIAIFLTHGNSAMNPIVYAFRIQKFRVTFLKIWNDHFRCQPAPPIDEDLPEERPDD
Procedure: (§2) The human adenosine receptors have been transfected in CHO cells according with the method previously described by Klotz et al. (Naunyn-Schmied. Arch Pharm. 1998, 357: 1-9). Briefly, the cells are grown adherently and maintained in Dulbecco's Modified Eagles Medium with nutrient mixture F12 (DMEM/F12) without nucleosides, containing 10% fetal calf serum, penicillin (100 U/mL), streptomycin (100 μg/mL), L-glutamine (2 mM) and Geneticin (G418, 0.2 mg/ml) at 37° C. in 5% CO2/95% air. For membrane preparation the culture medium is removed and the cells are washed with phosphate-buffered saline and scraped off T75 flasks in ice-cold hypo tonic buffer (5 mM Tris HCl, 1 mM EDTA, pH 7.4). The cell suspension is homogenized with Polytron, the homogenate is spun for 10 min at 1000×g and the supernatant is then centrifuged for 30 min at 100,000×g. The membrane pellet is suspended in 50 mM Tris HCl buffer (pH 7.4) for A1 adenosine receptors, in 50 mM Tris HCl, 10 mM MgCl2 (pH 7.4) for A2A adenosine receptors, in 50 mM Tris HCl, 10 mM MgCl2, 1 mM EDTA (pH 7.4) for A2B and A3 adenosine receptors.
(§3) All new synthesized compounds have been tested to evaluate their affinity to human A1, A2A, A2B and A3 adenosine receptors. Displacement experiments of [^3H]-DPCPX to CHO cells transfected with the human recombinant A1 adenosine receptors are performed for 120 min at 25° C. incubating diluted membranes (50 μg of protein/assay) and at least 6-8 different concentrations of examined antagonists (Varani et al., Mol. Pharmacol., 2000, 57: 968-975). Non-specific binding is determined in the presence of 10 μM of CHA and this is always ≦10% of the total binding. Binding of [^3H]-ZM 241385 to CHO cells transfected with the human recombinant A2A adenosine receptors is performed using a suspension of membranes (50 μg of protein/assay) and at least 6-8 different concentrations of studied antagonists for an incubation time of 60 min at 4° C. Non-specific binding is determined in the presence of 1 μM ZM 241385 and is about 20% of total binding. Competition binding experiments of [^3H]-MRE 2029F20 to CHO cells transfected with the human recombinant A2B adenosine receptors are carried out incubating for 120 min at 4° C. diluted membranes (50 μg of protein/assay) and at least 6-8 different concentrations of examined compounds. Non-specific binding is defined as binding in the presence of 1 μM MRE 3029F20 and is about 25% of total binding. Competition binding experiments of [^3H]-MRE 3008F20 to CHO cells transfected with the human recombinant A3 adenosine receptors^5 are carried out incubating for 120 min at 4° C. diluted membranes (50 μg of protein/assay) and at least 6-8 different concentrations of examined ligands. Non-specific binding is defined as binding in the presence of 1 μM MRE 3008F20 and is about 25% of total binding. Bound and free radioactivity are separated by filtering the assay mixture through Whatman GF/B glass fiber filters using a Micro-Mate 196 cell harvester (Packard Instrument Co.). The filter bound radioactivity is counted on a Top Count (efficiency 57%) with Micro-Scint 20.
as §1

[4] = target: T3, human A2A adenosine receptors (Homo sapiens, UniProt P29274); test: Displacement of [3H]ZM241385 binding at human A2A adenosine receptors expressed in CHO cells; details: [3H]ZM241385 displacement, n = 3-6, geometric mean (95% confidence limits), read-out: Ki hA2A
T3 construct: expressed in transfected cells; host or cells: CHO cells (membranes)
Procedure: as §2, §3, §1

T3 sequence (P29274 whole entry): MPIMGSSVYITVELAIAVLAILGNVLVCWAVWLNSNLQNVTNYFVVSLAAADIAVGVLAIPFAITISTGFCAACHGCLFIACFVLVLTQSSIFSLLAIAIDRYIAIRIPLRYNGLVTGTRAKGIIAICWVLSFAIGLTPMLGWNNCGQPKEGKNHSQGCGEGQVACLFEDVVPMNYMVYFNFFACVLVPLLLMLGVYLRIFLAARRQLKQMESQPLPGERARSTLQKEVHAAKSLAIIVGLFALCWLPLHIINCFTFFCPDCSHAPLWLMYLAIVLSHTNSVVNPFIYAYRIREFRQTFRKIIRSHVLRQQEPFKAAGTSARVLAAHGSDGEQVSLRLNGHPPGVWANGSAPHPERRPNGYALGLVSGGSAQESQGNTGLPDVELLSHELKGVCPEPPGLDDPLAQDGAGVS

Row | SMILES | pIC50 [1] | pKi [2] | melting point [°C] | pKi [3] | pKi [4]
1 | CCCn1c(=O)c2[nH]c(-c3cc(C)n(CC(=O)Nc4ccc(Br)cc4)n3)nc2n(CCC)c1=O [Example 3, 2-[3-(2,6-Dioxo-1,3-dipropyl-2,3,6,7-tetrahydro-1H-purin-8-yl)-5-methyl-pyrazol-1-yl]-N-(4-bromophenyl)acetamide] | 6.81 | 7.46 | 270 to 273 | – | –
2 | CCCn1c(=O)c2[nH]c(-c3cc(C)n(CC(=O)Nc4cccc5ccccc45)n3)nc2n(CCC)c1=O [Example 13, 2-[3-(2,6-Dioxo-1,3-dipropyl-2,3,6,7-tetrahydro-1H-purin-8-yl)-5-methyl-pyrazol-1-yl]-N-(naphthalen-1-yl)-acetamide] | < 6.00 | – | > 300 | < 6.00 | < 6.00
3 | CCCn1c(=O)c2[nH]c(-c3cc(C)n(CC(=O)Nc4ccc(Cl)cc4)n3)nc2n(CCC)c1=O [Example 4, 2-[3-(2,6-Dioxo-1,3-dipropyl-2,3,6,7-tetrahydro-1H-purin-8-yl)-5-methyl-pyrazol-1-yl]-N-(4-chlorophenyl)-acetamide] | 7.37 | 8.15 | 261 to 265 | – | –
4 | CCCn1c(=O)c2[nH]c(-c3cc(CC)n(CC(=O)Nc4ccc(Cl)cc4)n3)nc2n(CCC)c1=O [Example 9] | < 6.00 | – | 256 to 257 | < 6.00 | < 6.00

The next lines start with the values.

Row | pIC50 [1] | pKi [2] | melting point [°C] | pKi [3] | pKi [4] | SMILES
5 | < 6.00 | – | > 300 | < 6.00 | < 6.00 | CCCn1c(=O)c2[nH]c(-c3cc(C)n(CC(=O)Nc4ccc(N(C)C)cc4)n3)nc2n(CCC)c1=O [Example 11, 2-[3-(2,6-Dioxo-1,3-dipropyl-2,3,6,7-tetrahydro-1H-purin-8-yl)-5-methyl-pyrazol-1-yl]-N-(4-dimethylaminophenyl)-acetamide]
6 | < 6.00 | – | 296 to 297 | < 6.00 | < 6.00 | CCCn1c(=O)c2[nH]c(-c3nn(CC(=O)Nc4ccc(Cl)cc4)c(C)c3I)nc2n(CCC)c1=O [Example 20, 2-[4-Iodo-3-(2,6-dioxo-1,3-dipropyl-2,3,6,7-tetrahydro-1H-purin-8-yl)-5-methyl-pyrazol-1-yl]-N-(4-chlorophenyl)-acetamide]
